Patent publication US20100173888A1 (Pfizer Inc, priority 2008, published 2010)
Counter-ions that a name gives are not always drawn.

The molecules below were run against human recombinant H-PGDS (Homo sapiens, UniProt O60760) (assay: Fluorescence intensity h-PGDS TBA enzyme assay (PGH2 depletion, MDA/TBA fluorescence)). Settings: 1:175,000 human recombinant H-PGDS, 42 second reaction, 3-fold serial dilutions, highest concentration typically 1 μM.
Assay type: biochemical
How it was run: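 Recombinant human H-PGDS preincubated with inhibitor 10 min at room temperature in pH 8.0 Tris, MgCl2, IgG, 2.5 mM glutathione, 0.5% DMSO. Reaction with 5.0 μM PGH2 stopped at 42 s with FeCl2/citric acid; MDA–TBA fluorescence (ex 530/em 565 nm) read after 70° C. IC50 by 4-parameter fit, 11 concentrations.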

human recombinant H-PGDS, sequence (O60760 whole entry): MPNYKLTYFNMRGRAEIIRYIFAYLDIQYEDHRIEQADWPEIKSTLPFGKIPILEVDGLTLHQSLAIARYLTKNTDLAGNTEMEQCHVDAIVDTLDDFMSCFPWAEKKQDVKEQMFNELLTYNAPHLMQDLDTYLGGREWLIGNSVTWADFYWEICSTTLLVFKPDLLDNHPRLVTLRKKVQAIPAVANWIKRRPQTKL

Q: With `COCCNC(=O)[C@H]1CC[C@@H](NC(=O)c2ccc(-c3cccc(F)c3)nc2)C1` [Example 185] as the molecule, how does the IC50 read?
A: 25.4 nM

Q: How did the IC50 turn out when `NC(=O)[C@H]1CC[C@@H](NC(=O)c2ccc(-c3cccc(F)c3)nc2)C1` [Example 186, N-[(1R,3S)-3-Carbamoylcyclopentyl]-6-(3-fluorophenyl)nicotinamide] was run?
A: 23.9 nM

Q: How did the IC50 turn out when `NC1CCN(C(=O)[C@H]2CC[C@@H](NC(=O)c3ccc(-c4cccc(F)c4)nc3)C2)CC1` [Example 187] was run?
A: 30.7 nM

Q: `C[C@@H](CO)NC(=O)[C@H]1CCC[C@@H](NC(=O)c2ccc(-c3cccc(F)c3)nc2)C1` [Example 188] was tested. Which IC50 did it give?
A: 17.1 nM

Q: With `N[C@@H]1[C@H]2CN(C(=O)[C@H]3CCC[C@@H](NC(=O)c4ccc(-c5cccc(F)c5)nc4)C3)C[C@@H]12` [Example 190, N-cis-3-{[(1R,5S,6S)-6-Amino-3-azabicyclo[3.1.0]hex-3-yl]carbonyl}cyclohexyl]-6-(3-fluorophenyl)nicotinamide hydrochloride] as the molecule, how does the IC50 read?
A: 17.5 nM

Q: For `C[C@@H](CO)NC(=O)[C@H]1CCC[C@@H](NC(=O)c2ccc(-c3cccc(F)c3)nc2)C1` [Example 194], which IC50 is on record?
A: 14.7 nM

Q: How did the IC50 turn out when `CCC(O)CNC(=O)[C@H]1CCC[C@@H](NC(=O)c2ccc(-c3cccc(F)c3)nc2)C1` (stereo partly drawn) [Example 197] was run?
A: 10.2 nM

Q: How did the IC50 turn out when `O=C(N[C@H]1CC[C@H](C(=O)NC2CCNCC2)CC1)c1ccc(-c2cccc(F)c2)nc1` [Example 201, 6-(3-Fluorophenyl)-N-[trans-4-(piperidin-4-ylcarbamoyl)cyclohexyl]nicotinamide] was run?
A: 31 nM

Q: For `C[C@H](O)C(=O)N[C@@H]1CCC[C@H](NC(=O)c2ccc(-c3cccc(F)c3)nc2)C1` [Example 206, 6-(3-Fluorophenyl)-N-{cis-3-{[(2S)-2-hydroxypropanoyl]amino}cyclohexyl]nicotinamide], which IC50 is on record?
A: 13.5 nM

Q: How did the IC50 turn out when `N[C@@H]1[C@H]2CN(C(=O)[C@H]3CC[C@H](NC(=O)c4ccc(-c5cccc(F)c5)nc4)CC3)C[C@@H]12` [Example 210, N-(trans-4-{[(1R,5S,6S)-6-Amino-3-azabicyclo[3.1.0]hex-3-yl]carbonyl}cyclohexyl)-6-(3-fluorophenyl)nicotinamide] was run?
A: 9.6 nM

Q: How did the IC50 turn out when `CN(C(=O)[C@H]1CC[C@H](NC(=O)c2ccc(-c3cccc(F)c3)nc2)CC1)C1CCNCC1` [Example 211, 6-(3-Fluorophenyl)-N-{trans-4-[methyl(piperidin-4-yl)carbamoyl]cyclohexyl}nicotinamide] was run?
A: 13 nM

Q: Which IC50 does the source give for `O=C(N[C@H]1CC[C@H]([C@H](O)C2CC2)CC1)c1ccc(-c2cccc(F)c2)nc1` [Example 212, N-[4-trans-((R)-Cyclopropylhydroxymethyl)cyclohexyl]-6-(3-fluorophenyl)nicotinamide] here?
A: 2.3 nM

Q: How did the IC50 turn out when `O=C(N[C@H]1CC[C@H](N2CCCC2)CC1)c1ccc(-c2cccc(F)c2)nc1` [Example 213, 6-(3-Fluorophenyl)-N-(trans-4-pyrrolidin-1-ylcyclohexyl)nicotinamide] was run?
A: 36 nM

Q: Which IC50 does the source give for `CCC(O)[C@H]1CC[C@H](NC(=O)c2ccc(-c3cccc(F)c3)nc2)CC1` (stereo partly drawn) [Example 214, 6-(3-Fluorophenyl)-N-[trans-4-(1-hydroxypropyl)cyclohexyl]nicotinamide] here?
A: 3 nM

Q: For `CC(O)[C@H]1CC[C@H](NC(=O)c2ccc(-c3cccc(F)c3)nc2)CC1` (stereo partly drawn) [Example 215, 6-(3-Fluorophenyl)-N-[trans-4-(1-hydroxyethyl)cyclohexyl]nicotinamide], which IC50 is on record?
A: 5.9 nM

Q: Which IC50 does the source give for `CC(C)(O)C(=O)N[C@H]1CC[C@@H](NC(=O)c2ccc(-c3cccc(F)c3)nc2)CC1` [Example 216, 6-(3-Fluorophenyl)-N-{cis-4-[(2-hydroxy-2-methylpropanoyl)amino]cyclohexyl}nicotinamide] here?
A: 31.8 nM

Q: How did the IC50 turn out when `CN1CCC(C(=O)N[C@H]2CC[C@@H](NC(=O)c3ccc(-c4cccc(F)c4)nc3)CC2)CC1` [Example 218, 6-(3-fluorophenyl)-N-(cis-4-{[(1-methylpiperidin-4-yl)carbonyl]amino}cyclohexyl)nicotinamide] was run?
A: 79.7 nM

Q: With `O=C(CO)N[C@H]1CC[C@@H](NC(=O)c2ccc(-c3cccc(F)c3)nc2)CC1` [Example 220, 6-(3-fluorophenyl)-N-[cis-4-(glycoloylamino)cyclohexyl]nicotinamide] as the molecule, how does the IC50 read?
A: 32.7 nM

Q: `CN(C)CC(=O)N[C@H]1CC[C@@H](NC(=O)c2ccc(-c3cccc(F)c3)nc2)CC1` [Example 221, N-{cis-4-[(N,N-dimethylglycyl)amino]cyclohexyl}-6-(3-fluorophenyl)nicotinamide] was tested. Which IC50 did it give?
A: 52.7 nM

Q: How did the IC50 turn out when `NCC(=O)N[C@H]1CC[C@@H](NC(=O)c2ccc(-c3cccc(F)c3)nc2)CC1` [Example 224, 6-(3-fluorophenyl)-N-[cis-4-(glycylamino)cyclohexyl]nicotinamide] was run?
A: 74 nM

Q: For `COC1(CO)CCC(NC(=O)c2ccc(-c3cccc(F)c3)nc2)CC1` (stereo not drawn) [Example 225, 6-(3-Fluorophenyl)-N-[4-(hydroxymethyl)-4-methoxycyclohexyl]nicotinamide], which IC50 is on record?
A: 5.3 nM

Q: How did the IC50 turn out when `CC(C)OCC1(O)CCC(NC(=O)c2ccc(-c3cccc(F)c3)nc2)CC1` (stereo not drawn) [Example 226, 6-(3-Fluorophenyl)-N-[4-hydroxy-4-(isopropoxymethyl)cyclohexyl]nicotinamide] was run?
A: 13.2 nM

Q: `O=C(NC1CCC(O)(CO)CC1)c1ccc(-c2cccc(F)c2)nc1` (stereo not drawn) [Example 227, 6-(3-Fluorophenyl)-N-[4-hydroxy-4-(hydroxymethyl)cyclohexyl]nicotinamide] was tested. Which IC50 did it give?
A: 23.8 nM

Q: How did the IC50 turn out when `CCCOCC1(O)CCC(NC(=O)c2ccc(-c3cccc(F)c3)nc2)CC1` (stereo not drawn) [Example 228, 6-(3-Fluorophenyl)-N-[4-hydroxy-4-(propoxymethyl)cyclohexyl]nicotinamide] was run?
A: 17.5 nM

Q: For `CNC(=O)OC(C)(C)[C@H]1CC[C@H](NC(=O)c2ccc(-c3cccc(F)c3)nc2)CC1` [Example 229, 1-[trans-4-({[6-(3-Fluorophenyl)pyridin-3-yl]carbonyl}amino)cyclohexyl]-1-methylethyl methylcarbamate], which IC50 is on record?
A: 2.5 nM

Q: With `CN1CCN(C(=O)[C@@]2(C)CCC[C@@H](NC(=O)c3ccc(-c4cccc(F)c4)nc3)C2)CC1` [Example 230, 6-(3-Fluorophenyl)-N-{(1R,3S)-3-methyl-3-[(4-methylpiperazin-1-yl)carbonyl]cyclohexyl}nicotinamide] as the molecule, how does the IC50 read?
A: 37.3 nM

Q: For `COC1(C(C)O)CCC(NC(=O)c2ccc(-c3cccc(F)c3)nc2)CC1` (stereo not drawn) [Example 232, 6-(3-Fluorophenyl)-N-[4-(1-hydroxyethyl)-4-methoxycyclohexyl]nicotinamide], which IC50 is on record?
A: 31.2 nM

Q: `CN(C)C(=O)N[C@H]1CC[C@@H](NC(=O)c2ccc(-c3cccc(F)c3)nc2)CC1` [Example 234, N-{cis-4-[(Dimethylcarbamoyl)amino]cyclohexyl}-6-(3-fluorophenyl)nicotinamide] was tested. Which IC50 did it give?
A: 11 nM

Q: `COCC1(O)CCC(NC(=O)c2ccc(-c3cccc(F)c3)nc2)CC1` (stereo not drawn) [Example 235, 6-(3-Fluorophenyl)-N-[4-hydroxy-4-(methoxymethyl)cyclohexyl]nicotinamide] was tested. Which IC50 did it give?
A: 11.8 nM

Q: For `CNC(=O)N[C@H]1CC[C@@H](NC(=O)c2ccc(-c3cccc(F)c3)nc2)CC1` [Example 236, 6-(3-Fluorophenyl)-N-{cis-4-[(methylcarbamoyl)amino]cyclohexyl}nicotinamide], which IC50 is on record?
A: 5.7 nM

Q: `C[C@H](O)C(=O)N[C@H]1CCC[C@H](NC(=O)c2ccc(-c3cccc(F)c3)nc2)C1` [Example 246, 6-(3-Fluorophenyl)-N-{trans-3-{[(2S)-2-hydroxypropanoyl]amino}cyclohexyl]nicotinamide] was tested. Which IC50 did it give?
A: 16.2 nM

Q: How did the IC50 turn out when `O=C(N[C@@H]1CCC[C@H](CNC(=O)[C@@H]2CCCN2)C1)c1ccc(-c2cccc(F)c2)nc1` [Example 259] was run?
A: 44.1 nM

Q: How did the IC50 turn out when `O=C(N[C@H]1CCC[C@@H](C(=O)N2CCC(O)CC2)C1)c1ccc(-c2cccc(F)c2)nc1` [Example 260, 6-(3-Fluorophenyl)-N-{(1S,3R)-3-[(4-hydroxypiperidin-1-yl)carbonyl]cyclohexyl}nicotinamide] was run?
A: 59.9 nM

Q: Which IC50 does the source give for `Cc1noc(C[C@H]2CC[C@H](NC(=O)c3ccc(-c4cccc(F)c4)nc3)CC2)n1` [Example 261, 6-(3-Fluorophenyl)-N-[trans 4-(3-methyl-[1,2,4]oxadiazol-5-ylmethyl)cyclohexyl]nicotinamide] here?
A: 4 nM

Q: How did the IC50 turn out when `CN1CCN(C(=O)C2(C#N)CCCC(NC(=O)c3ccc(-c4cccc(F)c4)nc3)C2)CC1` (stereo not drawn) [Example 263, N-{3-Cyano-3-[(4-methylpiperazin-1-yl)carbonyl]cyclohexyl}-6-(3-fluorophenyl)nicotinamide] was run?
A: 5 nM

Q: How did the IC50 turn out when `CCN1CCN(C(=O)C2(C#N)CCCC(NC(=O)c3ccc(-c4cccc(F)c4)nc3)C2)CC1` (stereo not drawn) [Example 264, N-{3-Cyano-3-[(4-ethylpiperazin-1-yl)carbonyl]cyclohexyl}-6-(3-fluorophenyl)nicotinamide] was run?
A: 9.2 nM

Q: Which IC50 does the source give for `N#CC1(C(=O)N2CCOCC2)CCCC(NC(=O)c2ccc(-c3cccc(F)c3)nc2)C1` (stereo not drawn) [Example 265, N-[3-Cyano-3-(morpholin-4-ylcarbonyl)cyclohexyl]-6-(3-fluorophenyl)nicotinamide] here?
A: 2.8 nM

Q: How did the IC50 turn out when `CN(C)C(=O)C1(C#N)CCCC(NC(=O)c2ccc(-c3cccc(F)c3)nc2)C1` (stereo not drawn) [Example 266, N-[3-Cyano-3-(dimethylcarbamoyl)cyclohexyl]-6-(3-fluorophenyl)nicotinamide] was run?
A: 10.6 nM

Q: For `CNC(=O)N[C@H]1CC[C@H](NC(=O)c2ccc(-c3cccc(F)c3)nc2)CC1` [Example 270], which IC50 is on record?
A: 9.1 nM

Q: How did the IC50 turn out when `CN(C)C(=O)N[C@H]1CC[C@H](NC(=O)c2ccc(-c3cccc(F)c3)nc2)CC1` [Example 271] was run?
A: 18 nM

Q: Which IC50 does the source give for `CNC(=O)N(C)[C@H]1CC[C@H](NC(=O)c2ccc(-c3cccc(F)c3)nc2)CC1` [Example 272, 6-(3-Fluorophenyl)-N-{trans-4-[methyl(methylcarbamoyl)amino]cyclohexyl}nicotinamide] here?
A: 11 nM

Q: For `Cc1nnc(C[C@H]2CC[C@@H](NC(=O)c3ccc(-c4cccc(F)c4)nc3)CC2)o1` [Example 273, 6-(3-Fluorophenyl)-N-{cis-4-[(5-methyl-1,3,4-oxadiazolyl-2-yl)methyl]cyclohexyl}nicotinamide], which IC50 is on record?
A: 5.4 nM
